Here are results for nine compounds from patent US9168311B2, “Oligomer-dantrolene conjugates and related compounds” (Nektar Therapeutics, priority 2007, dated 2015).

Series [1] has as its target T1, cardiac L-type calcium channel (Homo sapiens, UniProt Q13936).
T1 construct: Human myocytes were obtained from specimens of human right atrial appendage obtained during surgery; endogenous in cells; host or cells: primary human atrial myocytes isolated from right atrial appendage
As to the kind of experiment: Calcium current (ICa) block, whole-cell patch clamp in isolated human atrial myocytes. The class given is cell-based. The conditions noted are these: for Fold Difference (Parent vs. Derivative): ratio of IC50 at 0.1 Hz, derivative vs. dantrolene; for IC50: read-out: IC50 at 0.1 Hz. How it is done: Human myocytes were obtained from specimens of human right atrial appendage obtained during surgery from hearts of patients undergoing cardiopulmonary bypass. The isolation procedure produced rod-shaped, calcium tolerant cells which were used within 24 hours after isolation (Crumb et al., (1995) Am J Physiol 268:H1335-H1342).
The whole-cell patch clamp technique was carried out at 23±1° C. with precise micromanipulation under high power visual magnification to measure calcium currents. Glass pipettes were fire polished to produce tip diameters of 1-4 μm. The tip of the pipette, filled with electrolyte “internal” solution (a composition of (mM): 120 CsCl, 20 TEACl, 5 NaCl, 1 CaCl2, 10 EGTA, 10 HEPES, 5 MgATP, 0.2 Na2GTP, adjusted to pH 7.2 with CsOH) was positioned onto a cell. The cell was in a bathing “external” solution (consisting of (mM): 1.8 CaCl2, 137 NaCl, 20 CsCl, 4 KCl, 1 MgCl2, 10 HEPES, 10 dextrose, pH=7.4 with NaOH). Pipette tip resistance was approximately 1.0 to 2.0 MΩ when filled with the internal solution. Suction was then applied to the pipette interior to seal the cell membrane onto the tip. Another suction pulse then broke the membrane, establishing electrical access into the interior of the cell. The cellular interior then became dialysed by the solution the patch pipette was filled with.
After rupture of the cell membrane (entering whole-cell mode), current kinetics and amplitudes were allowed to stabilize (currents elicited by a series of voltage pulses given at 0.1 Hz were superimposed) as the cell was dialyzed with internal solution and paced at 1 Hz (3-5 minutes). Calcium current (ICa) was measured using a voltage pulse to 0 mV (200 ms duration) from a holding potential of −60 mV. Only a pacing rate of 0.1 Hz was used. Test article, at concentrations of 0.1, 1, 3, 10, 30, and […] was added in a cumulative manner to a cell.
Currents and voltages were recorded with patch-clamp amplifiers (Axopatch 1-B, Axon Instruments, Foster City, Calif.). Creation of voltage clamp pulses and data acquisition was controlled by a computer using electrophysiology software (pCLAMP version 9.2, Axon Instruments, Foster City, Calif.). […] Each cell served as its own control.
All stock solutions (10 mM) were made by adding DMSO directly into the bottle containing the test article.
Approximate IC50 values (Table 1) were obtained from non-linear regression analysis of dose-response curves (FIG. 1) using GraphPad's Prism 5.01 software. Data was also analyzed for mean percent inhibition±SEM at the highest concentration tested, 100 μM (FIG. 2).
To test for cell sensitivity, 0.1 μM nisoldipine was added after exposure to test article.
A general note: In patch-clamp work, channel activity is measured electrically.

A short description of series [2]: pKa and LogP determination with a Sirius GLPKa instrument. The class given is physicochemical.

The structures appear in SMILES notation. Counter-ions that a name gives are not always drawn.

The IC50 is the concentration that gives 50% inhibition. By logP is commonly meant a log measure of how a compound divides between an organic and an aqueous phase. Read a high logP as higher lipophilicity. Broadly, the pKa is the negative logarithm of the acid dissociation constant. Low values mean a stronger acid or weaker base, high ones a weaker acid or stronger base.

T1 sequence (Q13936 whole entry): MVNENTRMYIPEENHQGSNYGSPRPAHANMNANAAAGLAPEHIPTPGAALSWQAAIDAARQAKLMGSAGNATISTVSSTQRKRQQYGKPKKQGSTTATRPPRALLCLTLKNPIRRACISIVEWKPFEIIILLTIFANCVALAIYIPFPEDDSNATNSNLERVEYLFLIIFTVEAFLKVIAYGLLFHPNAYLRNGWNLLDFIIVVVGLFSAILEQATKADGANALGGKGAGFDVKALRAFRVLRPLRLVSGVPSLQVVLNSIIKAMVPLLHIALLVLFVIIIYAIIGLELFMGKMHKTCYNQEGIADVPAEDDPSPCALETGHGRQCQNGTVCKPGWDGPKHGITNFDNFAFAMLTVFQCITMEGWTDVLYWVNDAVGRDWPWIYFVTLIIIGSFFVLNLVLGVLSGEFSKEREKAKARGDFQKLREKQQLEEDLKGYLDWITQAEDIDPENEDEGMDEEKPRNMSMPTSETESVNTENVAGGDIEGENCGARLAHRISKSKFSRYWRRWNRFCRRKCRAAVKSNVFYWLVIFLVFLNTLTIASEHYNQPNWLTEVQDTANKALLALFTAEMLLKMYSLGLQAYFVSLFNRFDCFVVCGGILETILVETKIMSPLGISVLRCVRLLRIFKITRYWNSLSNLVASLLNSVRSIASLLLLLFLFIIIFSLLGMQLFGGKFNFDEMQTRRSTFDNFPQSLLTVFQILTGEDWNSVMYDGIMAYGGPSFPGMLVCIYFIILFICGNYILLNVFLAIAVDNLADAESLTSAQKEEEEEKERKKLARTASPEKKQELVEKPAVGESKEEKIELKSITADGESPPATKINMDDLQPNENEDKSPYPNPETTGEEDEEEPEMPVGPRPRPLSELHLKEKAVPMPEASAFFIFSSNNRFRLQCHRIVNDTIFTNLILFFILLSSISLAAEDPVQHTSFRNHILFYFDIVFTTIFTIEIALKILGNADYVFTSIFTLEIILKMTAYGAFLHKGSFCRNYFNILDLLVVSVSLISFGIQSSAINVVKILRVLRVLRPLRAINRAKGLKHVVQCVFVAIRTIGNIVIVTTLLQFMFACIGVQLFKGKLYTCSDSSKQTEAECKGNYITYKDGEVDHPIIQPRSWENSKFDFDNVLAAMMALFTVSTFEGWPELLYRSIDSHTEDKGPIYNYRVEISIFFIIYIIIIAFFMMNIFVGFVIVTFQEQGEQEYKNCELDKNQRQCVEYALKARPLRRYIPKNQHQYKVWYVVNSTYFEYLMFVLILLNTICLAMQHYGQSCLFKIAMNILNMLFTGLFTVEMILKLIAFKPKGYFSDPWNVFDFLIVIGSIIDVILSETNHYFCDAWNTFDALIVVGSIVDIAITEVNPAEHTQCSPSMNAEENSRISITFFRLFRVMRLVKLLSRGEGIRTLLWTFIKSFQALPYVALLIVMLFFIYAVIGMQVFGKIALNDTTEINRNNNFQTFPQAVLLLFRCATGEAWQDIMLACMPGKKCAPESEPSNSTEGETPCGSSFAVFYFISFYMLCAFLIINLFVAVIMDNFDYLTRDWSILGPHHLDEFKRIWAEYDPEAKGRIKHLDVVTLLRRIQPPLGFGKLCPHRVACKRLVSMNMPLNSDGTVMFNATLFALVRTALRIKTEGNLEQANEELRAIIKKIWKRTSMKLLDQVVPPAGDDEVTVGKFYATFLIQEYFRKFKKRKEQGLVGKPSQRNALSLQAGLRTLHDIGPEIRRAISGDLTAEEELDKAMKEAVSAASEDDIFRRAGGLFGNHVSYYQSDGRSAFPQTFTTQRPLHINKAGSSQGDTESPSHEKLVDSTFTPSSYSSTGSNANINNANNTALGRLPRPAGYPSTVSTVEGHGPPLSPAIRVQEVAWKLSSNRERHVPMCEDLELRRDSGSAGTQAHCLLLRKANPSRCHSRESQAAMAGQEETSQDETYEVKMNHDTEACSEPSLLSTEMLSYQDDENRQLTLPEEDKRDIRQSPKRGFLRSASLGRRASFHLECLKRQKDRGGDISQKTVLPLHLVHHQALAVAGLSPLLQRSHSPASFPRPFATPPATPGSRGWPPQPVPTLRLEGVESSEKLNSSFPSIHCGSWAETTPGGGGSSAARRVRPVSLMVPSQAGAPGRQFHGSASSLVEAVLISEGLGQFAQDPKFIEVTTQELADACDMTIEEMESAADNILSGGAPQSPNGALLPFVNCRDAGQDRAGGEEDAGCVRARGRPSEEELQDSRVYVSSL
T1 sequence (Q08289 whole entry partner): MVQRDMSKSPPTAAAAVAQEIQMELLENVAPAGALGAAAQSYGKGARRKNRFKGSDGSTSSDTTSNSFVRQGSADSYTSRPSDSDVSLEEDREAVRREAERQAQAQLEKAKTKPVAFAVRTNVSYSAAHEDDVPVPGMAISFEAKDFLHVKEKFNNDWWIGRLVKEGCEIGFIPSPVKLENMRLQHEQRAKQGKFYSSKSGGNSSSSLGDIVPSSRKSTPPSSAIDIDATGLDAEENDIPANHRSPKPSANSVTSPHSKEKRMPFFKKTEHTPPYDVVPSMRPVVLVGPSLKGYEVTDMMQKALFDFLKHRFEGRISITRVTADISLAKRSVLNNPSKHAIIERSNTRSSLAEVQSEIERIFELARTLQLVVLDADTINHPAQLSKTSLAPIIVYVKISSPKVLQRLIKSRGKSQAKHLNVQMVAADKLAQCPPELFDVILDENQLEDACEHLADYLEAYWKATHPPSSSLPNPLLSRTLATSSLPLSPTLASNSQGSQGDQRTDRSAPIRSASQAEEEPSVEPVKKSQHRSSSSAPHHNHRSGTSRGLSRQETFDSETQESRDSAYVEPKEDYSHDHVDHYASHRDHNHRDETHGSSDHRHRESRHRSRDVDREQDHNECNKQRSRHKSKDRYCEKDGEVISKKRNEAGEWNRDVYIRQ
T1 sequence (P54289 25-956 partner limits assumed): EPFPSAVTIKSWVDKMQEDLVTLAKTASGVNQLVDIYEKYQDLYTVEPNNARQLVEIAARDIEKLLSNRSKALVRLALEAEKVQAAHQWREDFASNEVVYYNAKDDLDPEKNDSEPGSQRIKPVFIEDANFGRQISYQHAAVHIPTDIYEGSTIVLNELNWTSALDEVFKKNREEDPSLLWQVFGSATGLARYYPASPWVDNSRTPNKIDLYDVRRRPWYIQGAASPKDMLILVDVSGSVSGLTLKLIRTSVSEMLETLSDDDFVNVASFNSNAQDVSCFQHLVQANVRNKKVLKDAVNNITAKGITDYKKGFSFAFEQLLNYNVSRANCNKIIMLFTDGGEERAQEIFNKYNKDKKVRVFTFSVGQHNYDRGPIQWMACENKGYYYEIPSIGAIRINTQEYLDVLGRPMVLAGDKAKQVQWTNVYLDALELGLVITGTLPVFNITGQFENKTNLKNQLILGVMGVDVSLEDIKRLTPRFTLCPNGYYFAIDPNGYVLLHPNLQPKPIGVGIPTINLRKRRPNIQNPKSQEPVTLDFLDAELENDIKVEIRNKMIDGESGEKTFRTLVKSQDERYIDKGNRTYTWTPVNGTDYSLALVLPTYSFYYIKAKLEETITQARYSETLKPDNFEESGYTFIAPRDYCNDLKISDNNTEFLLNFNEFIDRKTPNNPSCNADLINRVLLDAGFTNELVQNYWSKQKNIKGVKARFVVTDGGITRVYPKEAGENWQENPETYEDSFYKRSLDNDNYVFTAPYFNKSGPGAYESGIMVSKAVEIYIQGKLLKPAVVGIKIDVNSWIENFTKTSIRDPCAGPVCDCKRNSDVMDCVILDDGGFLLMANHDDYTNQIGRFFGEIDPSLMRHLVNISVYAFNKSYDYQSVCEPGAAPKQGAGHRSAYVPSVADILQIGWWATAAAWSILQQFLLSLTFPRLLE
T1 sequence (P54289 957-1103 partner limits assumed): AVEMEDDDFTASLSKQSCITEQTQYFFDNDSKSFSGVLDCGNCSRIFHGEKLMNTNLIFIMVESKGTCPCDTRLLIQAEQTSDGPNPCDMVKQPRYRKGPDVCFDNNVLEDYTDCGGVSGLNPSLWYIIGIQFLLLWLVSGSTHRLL

Regarding `COCCOCCOCCOCCOCCN1C(=O)CN(N=Cc2ccc(-c3ccc([N+](=O)[O-])cc3)o2)C1=O` [mPEG5-N-Dantrolene, mPEG5-N-dantrolene], in series [1], the “Fold Difference (Parent vs. Derivative)” value is 260 and the IC50 turned out to be 27 mM.
For `O=C1CN(/N=C/c2ccc(-c3ccc([N+](=O)[O-])cc3)o2)C(O)=N1` [Dantrolene], the “block of Ica amplitude” value in series [1] (at 100 μM, 0.1 Hz, isolated human atrial myocytes) is given as 21.1%. For the same compound, the IC50 in series [1] was 0.104 mM.
As to `COCCOCCOCCOc1cc([N+](=O)[O-])ccc1-c1ccc(C=NN2CC(=O)NC2=O)o1` [mPEG3-O-Dantrolene, mPEG3-O-dantrolene], in series [2], the logP is -0.6 and the pKa is 8.69. Besides, the “Fold Difference (Parent vs. Derivative)” value in series [1] amounted to 1144.
In series [2], `COCCOCCOCCOCCOCCOc1cc([N+](=O)[O-])ccc1-c1ccc(C=NN2CC(=O)NC2=O)o1` [mPEG5-O-Dantrolene, mPEG5-O-dantrolene] gave a logP of 0.74 and a pKa of 7.49. Moreover, in series [1], the “Fold Difference (Parent vs. Derivative)” value amounted to 522 and the IC50 is 54.3 mM.
In series [2], `COCCOCCOCCOCCOCCOCCOCCOc1cc([N+](=O)[O-])ccc1-c1ccc(C=NN2CC(=O)NC2=O)o1` [mPEG7-O-Dantrolene, mPEG7-O-dantrolene] had a logP of 0.62 and a pKa of 7.32. In series [1], the “Fold Difference (Parent vs. Derivative)” value is given as 444 and the IC50 amounted to 46.2 mM.
Regarding `O=C1CN(/N=C/c2ccc(-c3ccc([N+](=O)[O-])cc3)o2)C(O)=N1` [Dantrolene sodium salt, reference compound], the pKa in series [2] is 7.11.
Regarding `COCCOCCOCCOCCOCCOCCOCCN1C(=O)CN(N=Cc2ccc(-c3ccc([N+](=O)[O-])cc3)o2)C1=O` [mPEG7-N-Dantrolene, mPEG7-N-dantrolene], in series [1], the “Fold Difference (Parent vs. Derivative)” value came to 2 and the IC50 came to 0.193 mM.
As to `COC(=O)C1=C(C)NC(C)=C(C(=O)OCC(C)C)C1c1ccccc1[N+](=O)[O-]` (centres unmarked) [nisoldipine, reference compound], the “reduction Ica” value in series [1] (0.1 μM nisoldipine added after exposure to test article, 2 cells, cell sensitivity test) was found to be 100%.
As for `COCCOCCOCCN1C(=O)CN(N=Cc2ccc(-c3ccc([N+](=O)[O-])cc3)o2)C1=O` [mPEG3-N-Dantrolene, mPEG3-N-dantrolene], the “Fold Difference (Parent vs. Derivative)” value in series [1] is reported as 1067.
